From US20080058293A1, “Quinoline Derivates and Their Use in Therapy” (priority 2003, published 2008) come the findings set out here.

Counter-ions that a name gives are not always drawn.

This test concerns the target T1, P2X7 receptor (Homo sapiens, UniProt Q99572).
T1 construct: 200 μl of a suspension of THP-1 cells; endogenous in cells; host or cells: THP-1 cells
T1 sequence (Q99572 1-595): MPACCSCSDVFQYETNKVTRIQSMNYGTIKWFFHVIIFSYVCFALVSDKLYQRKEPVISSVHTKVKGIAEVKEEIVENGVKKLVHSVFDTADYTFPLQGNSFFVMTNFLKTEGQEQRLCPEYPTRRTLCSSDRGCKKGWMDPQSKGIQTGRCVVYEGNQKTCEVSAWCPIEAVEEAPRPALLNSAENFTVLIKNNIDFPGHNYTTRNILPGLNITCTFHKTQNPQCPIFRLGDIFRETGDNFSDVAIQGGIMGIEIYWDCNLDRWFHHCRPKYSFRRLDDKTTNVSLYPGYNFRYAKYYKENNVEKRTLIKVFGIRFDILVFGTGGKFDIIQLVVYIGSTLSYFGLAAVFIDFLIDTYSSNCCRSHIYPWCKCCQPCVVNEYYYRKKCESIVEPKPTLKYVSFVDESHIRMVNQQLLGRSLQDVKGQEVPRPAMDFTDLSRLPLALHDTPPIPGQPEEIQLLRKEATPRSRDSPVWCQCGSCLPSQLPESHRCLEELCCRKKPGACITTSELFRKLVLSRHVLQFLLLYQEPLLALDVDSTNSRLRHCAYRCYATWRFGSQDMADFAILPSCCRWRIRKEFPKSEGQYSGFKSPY
The test is described as follows: bbATP-induced ethidium bromide fluorescence in THP-1 cells, P2X7 receptor antagonist activity. Particulars: negative logarithm of concentration reducing bbATP agonist activity by 50%, 10^-5M bbATP, 37° C. one hour. It is filed as cell-based. The text has this:
Certain compounds such as benzoylbenzoyl adenosine triphosphate (bbATP) are known to be agonists of the P2X7 receptor, effecting the formation of pores in the plasma membrane (Drug Development Research (1996), 37(3), p. 126). Consequently, when the receptor is activated using bbATP in the presence of ethidium bromide (a fluorescent DNA probe), an increase in the fluorescence of intracellular DNA-bound ethidium bromide is observed. The increase in fluorescence can be used as a measure of P2X7 receptor activation and therefore to quantify the effect of a compound on the P2X7 receptor.
In this manner, each of the title compounds of the Examples was tested for antagonist activity at the P2X7 receptor. Thus, the test was performed in 96-well flat bottomed microtitre plates, the wells being filled with 250 μl of test solution comprising 200 μl of a suspension of THP-1 cells (2.5×10^6 cells/ml) containing 10^−4M ethidium bromide, 25 μl of a high potassium buffer solution containing 10^−5M bbATP, and 25 μl of the high potassium buffer solution containing 3×10^−5M test compound. The plate was covered with a plastics sheet and incubated at 37° C. for one hour. The plate was then read in a Perkin-Elmer fluorescent plate reader, excitation 520 nm, emission 595 nm, slit widths: Ex 15 nm, Em 20 nm. For the purposes of comparison, bbATP (a P2X7 receptor agonist) and pyridoxal 5-phosphate (a P2X7 receptor antagonist) were used separately in the test as controls.
The IC50 is the concentration needed to halve the response being measured. The low end stands for greater potency in that assay, the high end for weaker potency in that assay. For the compound `Cc1ccc2c(C(=O)NC[C@H](C)c3ccccc3)c(Cl)ccc2n1` [Example 1, 6-Chloro-2-methyl-N-[(2R)-2-phenylpropyl]-5-quinolinecarboxamide, hydrochloride], the IC50 was 316 nM.

Consider `CNCCCN(C)c1ccc2c(NC(=O)C[C@@H](C)c3ccccc3)c(Cl)ccc2n1` [Example 3, (βR)-N-[6-Chloro-2-[methyl[3-(methylamino)propyl]amino]-5-quinolinyl]-β-methyl-benzenepropanamide, ditrifluoroacetate], for which the concentration for half-maximal inhibition (IC50) was 31.6 nM.

The compound `O=C(CCc1ccccc1Cl)Nc1c(Cl)ccc2nc(N3CCC(C(=O)O)CC3)ccc12` [Example 20, 1-[6-Chloro-5-[[3-(2-chlorophenyl)-1-oxopropyl]amino]-2-quinolinyl]-4-piperidinecarboxylic acid, potassium salt] showed an IC50 of 794 nM.
